Data from ChEMBL document CHEMBL1135424, “Beta-aryl-succinic acid hydroxamates as dual inhibitors of matrix metalloproteinases and tumor necrosis factor alpha converting enzyme” (J Med Chem, 2002).

What follows are compounds tested against Stromelysin-1 (Homo sapiens, UniProt P08254) (assay: Inhibitory potency against Matrix metalloprotease-3 (MMP-3)).
Sequence of Stromelysin-1 (P08254 whole entry): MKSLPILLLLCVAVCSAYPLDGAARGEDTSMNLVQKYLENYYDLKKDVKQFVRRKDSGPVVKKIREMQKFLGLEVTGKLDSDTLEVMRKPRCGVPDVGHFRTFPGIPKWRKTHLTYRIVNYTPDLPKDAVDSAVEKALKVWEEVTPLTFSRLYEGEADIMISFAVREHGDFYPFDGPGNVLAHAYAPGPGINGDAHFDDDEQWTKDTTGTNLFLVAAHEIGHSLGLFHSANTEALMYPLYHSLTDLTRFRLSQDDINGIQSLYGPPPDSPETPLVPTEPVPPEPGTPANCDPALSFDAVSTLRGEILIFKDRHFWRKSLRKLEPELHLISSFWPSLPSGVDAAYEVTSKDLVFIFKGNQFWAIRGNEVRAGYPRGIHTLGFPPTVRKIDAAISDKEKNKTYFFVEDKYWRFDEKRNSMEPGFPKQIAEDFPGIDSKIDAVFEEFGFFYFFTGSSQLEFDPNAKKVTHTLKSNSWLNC

Ki | SMILES
13.2 nM | CNC(=O)[C@@H](NC(=O)[C@H](c1ccccc1)[C@H](CO)C(=O)NO)C(C)(C)C
0.9 nM | CNC(=O)[C@@H](NC(=O)[C@H](c1ccc(OC)cc1)[C@H](CO)C(=O)NO)C(C)(C)C
9.8 nM | CNC(=O)[C@@H](NC(=O)[C@H](CC(C)C)[C@H](CO)C(=O)NO)C(C)(C)C
15.2 nM | CNC(=O)[C@@H](NC(=O)[C@H](c1ccc(C)cc1)[C@H](CO)C(=O)NO)C(C)(C)C

These compounds were tested against T1, Interstitial collagenase (Homo sapiens, UniProt P03956) (assay: Inhibitory potency against Matrix metalloprotease-1 (MMP-1)).
T1 sequence (P03956 whole entry): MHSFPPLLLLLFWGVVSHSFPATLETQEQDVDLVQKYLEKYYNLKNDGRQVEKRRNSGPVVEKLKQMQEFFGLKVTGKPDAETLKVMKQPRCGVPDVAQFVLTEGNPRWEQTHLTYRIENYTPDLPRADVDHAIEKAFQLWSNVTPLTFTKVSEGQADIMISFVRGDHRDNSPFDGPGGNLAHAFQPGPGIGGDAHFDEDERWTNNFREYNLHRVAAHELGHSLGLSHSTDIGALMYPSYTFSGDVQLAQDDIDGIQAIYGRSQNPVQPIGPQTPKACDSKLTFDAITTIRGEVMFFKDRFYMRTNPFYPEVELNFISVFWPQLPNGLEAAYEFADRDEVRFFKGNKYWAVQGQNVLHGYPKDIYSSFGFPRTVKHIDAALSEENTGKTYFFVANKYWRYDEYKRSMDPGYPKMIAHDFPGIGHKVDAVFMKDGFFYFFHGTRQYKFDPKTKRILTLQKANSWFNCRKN

Ki | SMILES
3.5 nM | CNC(=O)[C@@H](NC(=O)[C@H](c1ccccc1)[C@H](CO)C(=O)NO)C(C)(C)C
1.1 nM | CNC(=O)[C@@H](NC(=O)[C@H](c1ccc(OC)cc1)[C@H](CO)C(=O)NO)C(C)(C)C
0.6 nM | CNC(=O)[C@@H](NC(=O)[C@H](CC(C)C)[C@H](CO)C(=O)NO)C(C)(C)C
2 nM | CNC(=O)[C@@H](NC(=O)[C@H](c1ccc(C)cc1)[C@H](CO)C(=O)NO)C(C)(C)C

Each compound was assayed against Disintegrin and metalloproteinase domain-containing protein 17 (Homo sapiens, UniProt P78536) (assay: Inhibitory potency against Tumor necrosis factor alpha converting enzyme (TACE)).
Sequence of Disintegrin and metalloproteinase domain-containing protein 17 (P78536 whole entry, the tested form may be a part): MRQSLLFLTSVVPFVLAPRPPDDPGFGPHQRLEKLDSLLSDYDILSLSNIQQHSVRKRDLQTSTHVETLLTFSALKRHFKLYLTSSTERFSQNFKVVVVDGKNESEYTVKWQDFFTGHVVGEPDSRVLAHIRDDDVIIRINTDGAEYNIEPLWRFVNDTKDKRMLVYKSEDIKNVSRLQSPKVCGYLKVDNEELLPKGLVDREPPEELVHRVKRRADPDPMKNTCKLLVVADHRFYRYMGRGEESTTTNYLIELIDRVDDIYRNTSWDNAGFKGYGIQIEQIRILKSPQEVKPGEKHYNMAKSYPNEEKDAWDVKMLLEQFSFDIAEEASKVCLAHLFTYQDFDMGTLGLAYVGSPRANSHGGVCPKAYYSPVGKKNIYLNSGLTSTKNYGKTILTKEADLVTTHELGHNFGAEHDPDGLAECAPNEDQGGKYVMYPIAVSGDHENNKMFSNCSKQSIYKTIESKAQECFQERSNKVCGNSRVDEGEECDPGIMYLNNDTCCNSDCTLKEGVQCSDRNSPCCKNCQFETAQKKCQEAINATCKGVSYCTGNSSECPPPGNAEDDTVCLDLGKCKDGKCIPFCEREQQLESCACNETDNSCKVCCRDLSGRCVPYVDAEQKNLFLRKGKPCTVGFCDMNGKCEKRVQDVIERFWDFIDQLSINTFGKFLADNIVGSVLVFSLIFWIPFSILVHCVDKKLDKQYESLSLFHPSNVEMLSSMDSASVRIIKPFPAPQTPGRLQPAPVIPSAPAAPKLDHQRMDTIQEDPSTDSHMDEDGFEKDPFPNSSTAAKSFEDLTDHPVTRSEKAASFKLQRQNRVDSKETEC

SMILES | Ki
CNC(=O)[C@@H](NC(=O)[C@H](c1ccccc1)[C@H](CO)C(=O)NO)C(C)(C)C | 4.9 nM
CNC(=O)[C@@H](NC(=O)[C@H](c1ccc(OC)cc1)[C@H](CO)C(=O)NO)C(C)(C)C | 0.6 nM
CNC(=O)[C@@H](NC(=O)[C@H](CC(C)C)[C@H](CO)C(=O)NO)C(C)(C)C | 12.9 nM
CNC(=O)[C@@H](NC(=O)[C@H](c1ccc(C)cc1)[C@H](CO)C(=O)NO)C(C)(C)C | 3.8 nM

The compounds below were run against Tumor necrosis factor (Homo sapiens, UniProt P01375) (assay: Inhibitory activity against tumor necrosis factor alpha (TNF-alpha) production in LPS-stimulated human PBMCs).
Sequence of Tumor necrosis factor (P01375 whole entry): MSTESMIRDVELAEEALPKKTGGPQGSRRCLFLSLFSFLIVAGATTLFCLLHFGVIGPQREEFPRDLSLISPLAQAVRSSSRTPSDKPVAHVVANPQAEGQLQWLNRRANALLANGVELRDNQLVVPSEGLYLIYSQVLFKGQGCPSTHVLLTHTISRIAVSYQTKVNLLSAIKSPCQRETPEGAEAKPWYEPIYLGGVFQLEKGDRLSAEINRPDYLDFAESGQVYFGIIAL
Assay type: functional

SMILES | IC50
CNC(=O)[C@@H](NC(=O)[C@H](c1ccccc1)[C@H](CO)C(=O)NO)C(C)(C)C | 928 nM
CNC(=O)[C@@H](NC(=O)[C@H](c1ccc(OC)cc1)[C@H](CO)C(=O)NO)C(C)(C)C | 48 nM
CNC(=O)[C@@H](NC(=O)[C@H](CC(C)C)[C@H](CO)C(=O)NO)C(C)(C)C | 1610 nM
CNC(=O)[C@@H](NC(=O)[C@H](c1ccc(C)cc1)[C@H](CO)C(=O)NO)C(C)(C)C | 269 nM
CNC(=O)[C@@H](NC(=O)[C@H](CC(C)C)[C@H](O)C(=O)NO)C(C)(C)C | 1000 nM

Each compound was assayed against 72 kDa type IV collagenase (Homo sapiens, UniProt P08253) (assay: Inhibitory potency against Matrix metalloprotease-2 (MMP-2)).
Sequence of 72 kDa type IV collagenase (P08253 whole entry): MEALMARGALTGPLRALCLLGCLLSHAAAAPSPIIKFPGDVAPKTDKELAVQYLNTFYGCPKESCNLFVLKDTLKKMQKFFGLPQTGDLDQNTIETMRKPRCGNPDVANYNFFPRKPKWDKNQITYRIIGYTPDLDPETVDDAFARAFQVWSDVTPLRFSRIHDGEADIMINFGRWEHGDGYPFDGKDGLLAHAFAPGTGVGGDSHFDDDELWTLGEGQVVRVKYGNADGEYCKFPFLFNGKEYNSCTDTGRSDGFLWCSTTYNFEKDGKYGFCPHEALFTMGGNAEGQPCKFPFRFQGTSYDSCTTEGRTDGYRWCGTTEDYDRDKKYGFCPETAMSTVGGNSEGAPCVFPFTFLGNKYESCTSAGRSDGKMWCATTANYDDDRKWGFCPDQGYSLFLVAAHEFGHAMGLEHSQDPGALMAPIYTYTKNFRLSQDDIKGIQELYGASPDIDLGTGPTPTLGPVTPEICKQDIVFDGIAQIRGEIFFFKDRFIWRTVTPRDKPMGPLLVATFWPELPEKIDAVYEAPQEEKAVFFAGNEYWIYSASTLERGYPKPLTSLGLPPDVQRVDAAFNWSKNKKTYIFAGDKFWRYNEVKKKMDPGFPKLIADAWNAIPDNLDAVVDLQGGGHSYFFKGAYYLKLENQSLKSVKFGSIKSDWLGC

Ki | SMILES
4.8 nM | CNC(=O)[C@@H](NC(=O)[C@H](c1ccccc1)[C@H](CO)C(=O)NO)C(C)(C)C
0.5 nM | CNC(=O)[C@@H](NC(=O)[C@H](c1ccc(OC)cc1)[C@H](CO)C(=O)NO)C(C)(C)C
0.3 nM | CNC(=O)[C@@H](NC(=O)[C@H](CC(C)C)[C@H](CO)C(=O)NO)C(C)(C)C
0.3 nM | CNC(=O)[C@@H](NC(=O)[C@H](c1ccc(C)cc1)[C@H](CO)C(=O)NO)C(C)(C)C
